Laboratory results reported in patent US12600716B2 (Gannex Pharma Co., Ltd., priority 2020, dated 2026).
Where two headings read alike, the source gives them in different places.

Key:
[1] = Mouse pharmacokinetic studies (IV and PO); type: in vivo, Male CD-1 mice; conditions: for PO F: PO 10 mg/kg vs IV 2.0 mg/kg; for Vd / AUC(0-t) / clearance / half-life / Cmax / Tmax: male, CD-1, plasma; for clearance: read-out: IV Cl; for half-life: read-out: IV T½ (converted)
Description: Mouse Pharmacokinetic Studies
Typical PK study procedure. For i.v. PK studies, a group of three fasted Male CD-1 mice were dosed with the compound (2.0 mg/kg, 0.50 mg/mL in 5% solutol in saline, clear solution), and 0.02 mL blood was collected at 0.0830, 0.250, 0.500, 1.00, 2.00, 4.00, 8.00, 24.0 h. For PO PK studies, a group of three fasted Male CD-1 mice were dosed with the compound (10 mg/kg, 1 mg/mL in 5% solutol in saline, clear solution), and 0.02 mL blood was collected at 0.250, 0.500, 1.00, 2.00, 4.00, 6.00, 8.00, 24.0 h. The blood was collected into EP tubes (containing EDTA K20.85-1.15 mg) and centrifuged at 3,000 g or 3,200 g at 4° C. for 10 min) and plasma was isolated and divided into two vials. One was used for bioanalysis and one was kept as backup. The samples were kept at −60° C. or below, until being analyzed by LC MS/MS. The samples were analyzed with AB SCIEX INSTRUMENTS LC-MS/MS AU-Triple Quad 6500 Plus and data were processed with Phoenix WinNonlin 6.3 (IV-noncompartmental model and PO-noncompartmental model).

[2] = tested on: STZ+DEN+HFD induced NASH model; experiment: STZ+DEN+HFD induced NASH model in mice; type: in vivo, male C57BL/6 mice
Description: Therapeutic efficacy of FXR compounds was evaluated in STZ+DEN+HFD induced NASH model in male C57BL/6 mice. Briefly, newborn male C57BL/6 mice were injected with streptozocin (STZ) at Week 2 to introduce diabetes and diethylnitrosamine (DEN) at Week 4 to promote liver fibrosis. Mice receiving neither STZ nor DEN were used as negative control (Group 1, n=12) and were fed with normal diet. At Week 6, 60 diabetic mice were selected (blood glucose>12 mmol/L after 6 h of fasting) and were fed with high fat diet (HFD, diet that contains 60 kcal % fat). After one week on HFD, animals were randomly assigned into 5 groups based on body weight: Group 2 (n=12), disease model group, no compound treatment; Group 3 (n=10), positive control group, treated with OCA (30 mg/kg); Group 4 (n=12), treated with Compound 1 (3 mg/kg); Group 5 (n=12), treated with Compound 1 (10 mg/kg); Group 6 (n=12), treated with Compound 1 (30 mg/kg). OCA and Compounds 1 were PO QD, for 7 weeks. On the day after last dose, all animals were euthanized and liver tissues were fixed with formalin for pathological evaluation.

[3] = tested on: DEN+HFD+CHOL induced NASH model; experiment: DEN+HFD+CHOL induced NASH model in rats; type: in vivo, male SD rats
Description: Therapeutic efficacy of FXR compounds was evaluated in DEN+HFD+CHOL induced NASH model in male SD rats. Newborn male rats received DEN injection at Week 2 after birth to generate NASH model. Negative control animals (Group 1, n=10) received no DEN injection. At Week 4, 50 rats that received DEN injections started HFD+CHOL diet (60 kcal % Fat+1.25% Cholesterol+0.5% cholate) for 8 weeks, while negative control animals were still on normal diet. At Week 5, DEN treated rats were randomly assigned into 5 groups (Group 2-6) based on body weight. Disease Group (Group 2, n=10), received no treatment; OCA group (Group 3, n=10) received OCA at 30 mg/kg. Group 4-6 (n=10 each) received Compound 1 at low (3 mg/kg), […], and […]. OCA and Compound 1 were given PO QD, for 7 weeks. On the day after last dose, all animals were euthanized and liver tissues were fixed with formalin for pathological evaluation.

[4] = target: T1, human FXR protein (Homo sapiens, UniProt Q96RI1); experiment: FXR agonist binding ability: time-resolved fluorescence (LanthaScreen) FXR/coactivator assay; type: biochemical; conditions: GST-labeled human FXR, fluorescein-labeled coactivator, TR-FRET
T1 construct: purchased Invitrogen
Summary of the method: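 GST-tagged human FXR (20 nM final) with fluorescein-labeled SRC2-2 coactivator and GST antibody was exposed to 10-point 3-fold compound dilutions in buffer G, 1 h at room temperature in the dark. TR-FRET was read at 520/495 nm, and EC50 was calculated for activation of the coactivator interaction.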

[5] = target: T2, hFXR-LBD-GAL4 (Homo sapiens, UniProt Q96RI1); experiment: FXR agonist transactivation ability: luciferase reporter gene in HEK293T; type: cell-based; conditions: read-out: Cell activity
T2 construct: GAL4 (fusion partner); host or cells: HEK293T
T2 sequence (Q96RI1 262-486 limits assumed): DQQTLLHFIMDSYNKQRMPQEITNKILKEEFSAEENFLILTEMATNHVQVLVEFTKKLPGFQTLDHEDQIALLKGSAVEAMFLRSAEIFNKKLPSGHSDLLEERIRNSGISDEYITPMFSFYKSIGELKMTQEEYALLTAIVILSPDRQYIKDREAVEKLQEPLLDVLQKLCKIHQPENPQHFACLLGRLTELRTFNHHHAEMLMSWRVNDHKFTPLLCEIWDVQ

[6] = IV 2.0 mg/kg, read-out: IV AUC 0-t
[7] = PO 10 mg/kg, read-out: PO AUC 0-t

| Compound | PO F [1] [%] | Vd ([1]; IV 2.0 mg/kg) [L/kg] | AUC(0-t) [1, 6] [ng·h/mL] | clearance ([1]; IV 2.0 mg/kg) [mL/min/kg] | half-life ([1]; IV 2.0 mg/kg) [min] | Cmax ([1]; PO 10 mg/kg) [ng/mL] | Tmax ([1]; PO 10 mg/kg) [min] | AUC(0-t) [1, 7] [ng·h/mL] | NAS score ([2]; 30 mg/kg PO QD 7 weeks) | decreased NAS score as compared with the model group ([2]; 30 mg/kg PO QD 7 weeks) [%] | lowered cirrhosis percentage ([2]; 30 mg/kg PO QD 7 weeks) [%] | hepatocyte steatosis (FIG. 1) ([2]; 3, 10 and 30 mg/kg PO QD 7 weeks, p<0.001) | progress of liver fibrosis (FIG. 2) ([2]; low (3 mg/kg) and high doses (30 mg/kg) PO QD 7 weeks) | NAS score lowered as compared to the model group ([3]; 30 mg/kg PO QD 7 weeks) [%] | lowered cirrhosis percentage ([3]; 30 mg/kg PO QD 7 weeks) [%] | NAS score (FIG. 3) ([3]; 3, 10 and 30 mg/kg PO QD 7 weeks, all p<0.001) | progress of liver fibrosis (FIG. 4) ([3]; 3, 10 and 30 mg/kg PO QD 7 weeks, p<0.01) | EC50 [4] [nM] | EC50 [5] [nM] | NAS score ([3]; 30 mg/kg PO QD 7 weeks, p<0.001) |
| --- | --- | --- | --- | --- | --- | --- | --- | --- | --- | --- | --- | --- | --- | --- | --- | --- | --- | --- | --- | --- |
| O=C(O)c1ccc(Oc2ccc3cc(OCc4c(-c5c(Cl)cccc5Cl)noc4C4CC4)ccc3c2)nc1 [Compound 1, 6-((6-((5-cyclopropyl-3-(2,6-dichlorophenyl)isoxazol-4-yl)methoxy)naphthalen-2-yl)oxy)nicotinic acid] | 33 | 1.75 | 705 | 47.4 | 51 | 641 | 49.8 | 1160 | significantly decreases | 46.2 | 15.2 | dose dependent decrease | significantly inhibited | 42.9 | 28.0 | dose dependent decrease | significantly inhibited | – | – | – |
| Cc1cc(C(=O)O)cnc1Oc1cccc2cc(OCc3c(-c4c(Cl)cccc4Cl)noc3C3CC3)ccc12 [Compound 28, 6-((6-((5-cyclopropyl-3-(2,6-dichlorophenyl)isoxazol-4-yl)methoxy)naphthalen-1-yl)oxy)-5-methylnicotinic acid] | 29.9 | 0.663 | 1180 | 28.4 | 58.6 | 2130 | 30 | 1740 | – | – | – | – | – | – | – | – | – | < 50 | < 200 | – |
| O=C(O)c1ccc(Oc2ccc3ccc(OCc4c(-c5c(Cl)cccc5Cl)noc4C4CC4)cc3c2)nc1 [Compound 31, 6-((7-((5-cyclopropyl-3-(2,6-dichlorophenyl)isoxazol-4-yl)methoxy)naphthalen-2-yl)oxy)nicotinic acid] | 9.74 | 2.77 | 304 | 110 | 36.8 | 133 | 20 | 140 | – | – | – | – | – | – | – | – | – | < 50 | < 200 | – |
| O=C(O)c1ccc(Oc2ccc3c(F)c(OCc4c(-c5c(Cl)cccc5Cl)noc4C4CC4)ccc3c2)nc1 [Compound 32, 6-((6-((5-cyclopropyl-3-(2,6-dichlorophenyl)isoxazol-4-yl)methoxy)-5-fluoronaphthalen-2-yl)oxy)nicotinic acid] | 54.7 | 1.36 | 1400 | 24 | 61.8 | 1400 | 30 | 3810 | – | – | – | – | – | – | – | – | – | < 50 | < 200 | – |
| O=C(O)c1ccc(F)cc1Oc1c(F)ccc2cc(OCc3c(-c4c(Cl)cccc4Cl)noc3C3CC3)ccc12 [Compound 44, 2-((6-((5-cyclopropyl-3-(2,6-dichlorophenyl)isoxazol-4-yl)methoxy)-2-fluoronaphthalen-1-yl)oxy)-4-fluorobenzoic acid] | 23.7 | 2.06 | 559 | 60.4 | 73.8 | 384 | 56 | 646 | – | – | – | – | – | – | – | – | – | < 50 | < 200 | – |
| Cc1nc(Oc2c(F)ccc3cc(OCc4c(-c5c(Cl)cccc5Cl)noc4C4CC4)ccc23)ccc1C(=O)O [Compound 45, 6-((6-((5-cyclopropyl-3-(2,6-dichlorophenyl)isoxazol-4-yl)methoxy)-2-fluoronaphthalen-1-yl)oxy)-2-methylnicotinic acid] | 15.7 | 1.04 | 1500 | 22.1 | 84 | 627 | 60 | 1140 | – | – | – | – | – | – | – | – | – | < 50 | < 200 | – |
| Cc1cc(C(=O)O)cnc1Oc1c(F)ccc2cc(OCc3c(-c4c(Cl)cccc4Cl)noc3C3CC3)ccc12 [Compound 47, 6-((6-((5-cyclopropyl-3-(2,6-dichlorophenyl)isoxazol-4-yl)methoxy)-2-fluoronaphthalen-1-yl)oxy)-5-methylnicotinic acid] | 28.6 | 0.495 | 1500 | 22.2 | 38.3 | 2150 | 30 | 2140 | – | – | – | – | – | – | – | – | – | < 50 | < 200 | – |
| CC[C@H]1[C@@H](O)[C@@H]2[C@H](CC[C@]3(C)[C@@H]([C@H](C)CCC(=O)O)CC[C@@H]23)[C@@]2(C)CC[C@@H](O)C[C@@H]12 [OCA, reference compound] | – | – | – | – | – | – | – | – | decrease in NAS score | – | – | – | – | – | – | – | – | – | – | decrease in NAS score |
